Laboratory results from patent US11807644B2 (PMV Pharmaceuticals, Inc., priority 2020, dated 2023).

What follows are molecules tested against T1, recombinant His-tag Y220C p53 DBD protein (Homo sapiens, UniProt P04637, Y220C) (assay: In vitro DNA binding activity assay (TR-FRET): binding of His-tag Y220C p53 DBD to biotin-labeled consensus DNA). Details: SC150 = concentration to increase DNA binding by […], His-tag Y220C p53 DBD, biotin-labeled consensus DNA.
T1 construct: recombinant His-tag Y220C p53 DBD protein (amino acids #˜94-312)
Assay type: biochemical

Structure (SMILES)	Y220C SC150 (μM)
CN1CC[C@@H](Nc2cccc3c2cc(-c2noc(CNc4nccc5ccsc45)n2)n3CC(F)(F)F)[C@@H](F)C1 [Compound 445B, N-[(3S,4R)-3-fluoro-1-methylpiperidin-4-yl]-2-{5-[({thieno[2,3-c]pyridin-7-yl}amino)methyl]-1,2,4-oxadiazol-3-yl}-1-(2,2,2-trifluoroethyl)-1H-indol-4-amine]	* (* = 0 μM ≤ SC150 < 0.1 μM)
CN1CC[C@@H](Nc2cccc3c2cc(-c2noc(CNC(=O)c4ccc(C5(C)CC5)s4)n2)n3CC(F)(F)F)[C@@H](F)C1 [Compound 446B]	* (* = 0 μM ≤ SC150 < 0.1 μM)
CO[C@H]1C[C@H](n2ccc(C(=O)NCc3nc(-c4cc5c(N[C@@H]6CCN(C)C[C@@H]6F)cccc5n4CC(F)(F)F)no3)c2)C1 [Compound 449B, N-{[3-(4-{[(3S,4R)-3-fluoro-1-methylpiperidin-4-yl]amino}-1-(2,2,2-trifluoroethyl)-1H-indol-2-yl)-1,2,4-oxadiazol-5-yl]methyl}-1-[(1r,3r)-3-methoxycyclobutyl]-1H-pyrrole-3-carboxamide]	* (* = 0 μM ≤ SC150 < 0.1 μM)
CN1CC[C@@H](Nc2cccc3c2cc(-c2noc(CNC(=O)c4ccn(C5CC(F)(F)C5)c4)n2)n3CC(F)(F)F)[C@@H](F)C1 [Compound 451B, 1-(3,3-difluorocyclobutyl)-N-{[3-(4-{[(3S,4R)-3-fluoro-1-methylpiperidin-4-yl]amino}-1-(2,2,2-trifluoroethyl)-1H-indol-2-yl)-1,2,4-oxadiazol-5-yl]methyl}-1H-pyrrole-3-carboxamide]	* (* = 0 μM ≤ SC150 < 0.1 μM)
CN1CC[C@@H](Nc2cccc3c2cc(-c2noc(CNc4nccc5c4cnn5C)n2)n3CC(F)(F)F)[C@@H](F)C1 [Compound 452B, N-[(3S,4R)-3-fluoro-1-methylpiperidin-4-yl]-2-{5-[({1-methyl-1H-pyrazolo[^4,3-c]pyridin-4-yl}amino)methyl]-1,2,4-oxadiazol-3-yl}-1-(2,2,2-trifluoroethyl)-1H-indol-4-amine]	* (* = 0 μM ≤ SC150 < 0.1 μM)
CN1CC[C@@H](Nc2cccc3c2cc(-c2noc(CNc4nccc5c4ccn5C)n2)n3CC(F)(F)F)[C@@H](F)C1 [Compound 454B, N-[(3S,4R)-3-fluoro-1-methylpiperidin-4-yl]-2-{5-[({1-methyl-1H-pyrrolo[3,2-c]pyridin-4-yl}amino)methyl]-1,2,4-oxadiazol-3-yl}-1-(2,2,2-trifluoroethyl)-1H-indol-4-amine]	* (* = 0 μM ≤ SC150 < 0.1 μM)
CN1CC[C@@H](Nc2cccc3c2cc(-c2noc(CNc4nccc5sccc45)n2)n3CC(F)(F)F)[C@@H](F)C1 [Compound 457B, N-[(3S,4R)-3-fluoro-1-methylpiperidin-4-yl]-2-{5-[({thieno[3,2-c]pyridin-4-yl}amino)methyl]-1,2,4-oxadiazol-3-yl}-1-(2,2,2-trifluoroethyl)-1H-indol-4-amine]	* (* = 0 μM ≤ SC150 < 0.1 μM)
CN1CC[C@@H](Nc2cccc3c2cc(-c2noc(CNc4cccc5c4ccn5C)n2)n3CC(F)(F)F)[C@@H](F)C1 [Compound 462B, N-[(3S,4R)-3-fluoro-1-methylpiperidin-4-yl]-2-(5-{[(1-methyl-1H-indol-4-yl)amino]methyl}-1,2,4-oxadiazol-3-yl)-1-(2,2,2-trifluoroethyl)-1H-indol-4-amine]	* (* = 0 μM ≤ SC150 < 0.1 μM)
CN1CC[C@@H](Nc2cccc3c2cc(-c2noc(CNc4cccc5c4cnn5C)n2)n3CC(F)(F)F)[C@@H](F)C1 [Compound 463B, N-{[3-(4-{[(3S,4R)-3-fluoro-1-methylpiperidin-4-yl]amino}-1-(2,2,2-trifluoroethyl)-1H-indol-2-yl)-1,2,4-oxadiazol-5-yl]methyl}-1-methyl-1H-indazol-4-amine]	* (* = 0 μM ≤ SC150 < 0.1 μM)
COCC1(n2ccc(C(=O)NCc3nc(-c4cc5c(N[C@@H]6CCN(C)C[C@@H]6F)cccc5n4CC(F)(F)F)no3)c2)CCC1 [Compound 471B]	* (* = 0 μM ≤ SC150 < 0.1 μM)
CN1CC[C@@H](Nc2cccc3c2cc(-c2noc(CNC(=O)c4cnc(C5(C)CCOCC5)s4)n2)n3CC(F)(F)F)[C@@H](F)C1 [Compound 473B, N-{[3-(4-{[(3S,4R)-3-fluoro-1-methylpiperidin-4-yl]amino}-1-(2,2,2-trifluoroethyl)-1H-indol-2-yl)-1,2,4-oxadiazol-5-yl]methyl}-2-(4-methyloxan-4-yl)-1,3-thiazole-5-carboxamide]	* (* = 0 μM ≤ SC150 < 0.1 μM)
CN1CC[C@@H](Nc2cccc3c2cc(-c2noc(CNC(=O)c4csc(C5(C)CCOCC5)n4)n2)n3CC(F)(F)F)[C@@H](F)C1 [Compound 474B, N-{[3-(4-{[(3S,4R)-3-fluoro-1-methylpiperidin-4-yl]amino}-1-(2,2,2-trifluoroethyl)-1H-indol-2-yl)-1,2,4-oxadiazol-5-yl]methyl}-2-(4-methyloxan-4-yl)-1,3-thiazole-4-carboxamide]	* (* = 0 μM ≤ SC150 < 0.1 μM)
COCC1(n2ccc(C(=O)NCc3nc(-c4cc5c(N[C@@H]6CCNC[C@@H]6F)cccc5n4CC(F)(F)F)no3)c2)CC1 [Compound 475B, N-{[3-(4-{[(3S,4R)-3-fluoropiperidin-4-yl]amino}-1-(2,2,2-trifluoroethyl)-1H-indol-2-yl)-1,2,4-oxadiazol-5-yl]methyl}-1-[1-(methoxymethyl)cyclopropyl]-1H-pyrrole-3-carboxamide]	* (* = 0 μM ≤ SC150 < 0.1 μM)

Results, then the molecule that gave them:

Y220C SC150 (μM)	Structure (SMILES)
* (* = 0 μM ≤ SC150 < 0.1 μM)	COC(C)(C)c1cc(C(=O)NCc2nc(-c3cc4c(N[C@@H]5CCN(C)C[C@@H]5F)cccc4n3CC(F)(F)F)no2)cs1 [Compound 447B, N-{[3-(4-{[(3S,4R)-3-fluoro-1-methylpiperidin-4-yl]amino}-1-(2,2,2-trifluoroethyl)-1H-indol-2-yl)-1,2,4-oxadiazol-5-yl]methyl}-5-(2-methoxypropan-2-yl)thiophene-3-carboxamide]
* (* = 0 μM ≤ SC150 < 0.1 μM)	CN1CC[C@@H](Nc2cccc3c2cc(-c2noc(CNC(=O)c4cnn(C5(C)CC5)c4)n2)n3CC(F)(F)F)[C@@H](F)C1 [Compound 448B, N-{[3-(4-{[(3S,4R)-3-fluoro-1-methylpiperidin-4-yl]amino}-1-(2,2,2-trifluoroethyl)-1H-indol-2-yl)-1,2,4-oxadiazol-5-yl]methyl}-1-(1-methylcyclopropyl)-1H-pyrazole-4-carboxamide]
* (* = 0 μM ≤ SC150 < 0.1 μM)	CN1CC[C@@H](Nc2cccc3c2cc(-c2noc(CNC(=O)c4cnc(N5CCOCC5)s4)n2)n3CC(F)(F)F)[C@@H](F)C1 [Compound 453B, N-{[3-(4-{[(3S,4R)-3-fluoro-1-methylpiperidin-4-yl]amino}-1-(2,2,2-trifluoroethyl)-1H-indol-2-yl)-1,2,4-oxadiazol-5-yl]methyl}-2-(morpholin-4-yl)-1,3-thiazole-5-carboxamide]
* (* = 0 μM ≤ SC150 < 0.1 μM)	COCc1ccc(C(=O)NCc2nc(-c3cc4c(N[C@@H]5CCN(C)C[C@@H]5F)cccc4n3CC(F)(F)F)no2)s1 [Compound 458B, N-{[3-(4-{[(3S,4R)-3-fluoro-1-methylpiperidin-4-yl]amino}-1-(2,2,2-trifluoroethyl)-1H-indol-2-yl)-1,2,4-oxadiazol-5-yl]methyl}-5-(methoxymethyl)thiophene-2-carboxamide]
* (* = 0 μM ≤ SC150 < 0.1 μM)	CN1CC[C@@H](Nc2cccc3c2cc(-c2noc(CNC(=O)c4cnc(N5CCCC5)s4)n2)n3CC(F)(F)F)[C@@H](F)C1 [Compound 459B, N-{[3-(4-{[(3S,4R)-3-fluoro-1-methylpiperidin-4-yl]amino}-1-(2,2,2-trifluoroethyl)-1H-indol-2-yl)-1,2,4-oxadiazol-5-yl]methyl}-2-(pyrrolidin-1-yl)-1,3-thiazole-5-carboxamide]
* (* = 0 μM ≤ SC150 < 0.1 μM)	CN1CC[C@@H](Nc2cccc3c2cc(-c2noc(CNC(=O)c4csc(N5CCCC5)n4)n2)n3CC(F)(F)F)[C@@H](F)C1 [Compound 460B, N-{[3-(4-{[(3S,4R)-3-fluoro-1-methylpiperidin-4-yl]amino}-1-(2,2,2-trifluoroethyl)-1H-indol-2-yl)-1,2,4-oxadiazol-5-yl]methyl}-2-(pyrrolidin-1-yl)-1,3-thiazole-4-carboxamide]
* (* = 0 μM ≤ SC150 < 0.1 μM)	COCc1cc(C(=O)NCc2nc(-c3cc4c(N[C@@H]5CCN(C)C[C@@H]5F)cccc4n3CC(F)(F)F)no2)cs1 [Compound 464B, N-{[3-(4-{[(3S,4R)-3-fluoro-1-methylpiperidin-4-yl]amino}-1-(2,2,2-trifluoroethyl)-1H-indol-2-yl)-1,2,4-oxadiazol-5-yl]methyl}-5-(methoxymethyl)thiophene-3-carboxamide]
* (* = 0 μM ≤ SC150 < 0.1 μM)	CN1CC[C@@H](Nc2cccc3c2cc(-c2noc(CNC(=O)c4csc(N5CCOCC5)n4)n2)n3CC(F)(F)F)[C@@H](F)C1 [Compound 465B, N-{[3-(4-{[(3S,4R)-3-fluoro-1-methylpiperidin-4-yl]amino}-1-(2,2,2-trifluoroethyl)-1H-indol-2-yl)-1,2,4-oxadiazol-5-yl]methyl}-2-(morpholin-4-yl)-1,3-thiazole-4-carboxamide]
* (* = 0 μM ≤ SC150 < 0.1 μM)	CN1CC[C@@H](Nc2cccc3c2cc(-c2noc(CNC(=O)c4csc(CN5CCCC5)c4)n2)n3CC(F)(F)F)[C@@H](F)C1 [Compound 466B]
* (* = 0 μM ≤ SC150 < 0.1 μM)	CN1CC[C@@H](Nc2cccc3c2cc(-c2noc(CNC(=O)c4ccn(C5(CO)CC5)c4)n2)n3CC(F)(F)F)[C@@H](F)C1 [Compound 472B, N-{[3-(4-{[(3S,4R)-3-fluoro-1-methylpiperidin-4-yl]amino}-1-(2,2,2-trifluoroethyl)-1H-indol-2-yl)-1,2,4-oxadiazol-5-yl]methyl}-1-[1-(hydroxymethyl)cyclopropyl]-1H-pyrrole-3-carboxamide]
